Data on two molecules can be found in article PMC7617456, “Cryptosporidium lysyl-tRNA synthetase inhibitors define the interplay between solubility and permeability required to achieve efficacy” (Science translational medicine, 2024).

Where two headings read alike, the source gives them in different places.

Data set [1] concerns C. parvum. The data set is described as follows: microbe, parasite or virus in culture. Type of data set: cell-based, Cryptosporidium parvum. The settings on record: for EC90: HCT-8, read-out: C. parvum EC90.
Data set [2] relates to C. hominis. The data set is described as follows: C. hominis growth inhibition in HCT-8 co-culture (image-based). The settings on record: Cryptosporidium hominis, HCT-8, 48 h, read-out: C. hominis EC50.
Description: Cryptosporidium in vitro inhibition (Vermont and Dundee)
Compounds were prepared in 100% DMSO and added at the time of infection (NLuc) or 3 hours post infection (imaging assays). Compounds were prepared at 1% final concentration DMSO in culture. Parasites were quantified at 48 hours post infection. NanoLuciferase was measured using a GloMax Discovery, Promega.
A Nikon Ecl ipse Ti2000 epifluorescence microscope with an automated stage was programmed to focus on the center of each well and take a 3×3 composite image using an EXi blue fluorescence microscopy camera (QImaging) with a 20X objective (NA = 0.45). Nuclei and parasite images were separately exported as .tif files, and parasites and host cells were counted using custom NIH ImageJ macros as reported previously.(29) Dose−response curves were
The test system of data set [3] is wild type C. parvum. The data set is described as follows: Neonatal calf efficacy model. In kind it is in vivo. Conditions: for calves receiving treatment that shed Cryptosporidium after day 16 PI: 15 mg/kg BID 7 days, n=7; for Cryptosporidium shedding: 15 mg/kg BID oral 7 days from day 1 PI, to day 16 PI; for fecal scores: 15 mg/kg BID, 0 = normal, 3 = severe, treatment period. The procedure: Calves were enrolled at birth and challenged with wild type C. parvum oocysts (Fig. 5A). DDD489 and DDD508 were administered orally at 15 mg/kg BID for 7 days, beginning on day 1 PI. Blood was sampled and mean free plasma concentration was determined (Fig. S10). Fecal samples were collected from individual animals and parasite shedding was quantified (oocyst/g) by microscopy and quantitative PCR. Fecal samples were collected daily until day 21 PI to monitor for parasite recrudescence. To determine the impact of our late lead compounds on reducing symptoms of cryptosporidiosis, several clinical observations were scored throughout the study.
Calves (Holstein Friesian, British Blue Cross, Limousin Cross, or Aberdeen Angus Cross) were born at commercial dairy farms, provided a colostrum feed, and transported to Moredun Scientific. Calves were enrolled in the study if >30 kg at birth and in good health. Enrolment was staggered due to timing of births.
Calves were assigned to control or treatment groups (7 calves per group) and housed in separate barns (within each barn calves were housed in adjacent, individual pens). Male calves were used in the DDD489 study, and both male and female calves were used in the DDD508 study (control group: 3 females/4 males; treatment group: 2 females/5 males). Calves were challenged on day 1 post birth with 5x10^5 C. parvum oocysts by oral gavage (Sterling Labs for DDD489; Waterborne Inc. for DDD508).
Starting day 1 PI, vehicle (in 0.5% HPMC, 0.4% Tween 80, 0.5% Benzyl alcohol in sterile water) or treatment (DDD489 or DDD508) were administered by oral gavage twice daily immediately prior to milk feeds, and at least 8 hours apart (± 30 minutes). Vehicle was delivered at a set volume (22.6 ml per occasion) and test compound at 15 mg/kg (maximum volume of 20 ml per occasion; prepared in vehicle). Blood samples were collected from all animals prior to morning treatment on Day 1, then 5 (± 2) minutes, 15 (± 2) minutes, 30 (± 5) minutes, 1, 2, 4, 8 and 24 hours (± 10 minutes) post first daily dose. This sample schedule was repeated on Day 7 for the same animals. Blood samples were processed to plasma. Weight was measured and clinical observations recorded as indicated. Fecal samples were collected daily throughout the study. […]
was limited to staff involved in the study, and separate PPE was dedicated for use with each […]
Specified staff were involved in preparing the vehicle and treatment material and were not involved in its administration. These staff were not involved in taking and recording clinical observations or collecting samples. Staff that administered the vehicle and treatment materials were blinded to the material identity. If staff involved in administration of materials or sample collection became “unblinded” at any point in the study, they were immediately removed from […]
Quantification of Cryptosporidium shedding from calf samples (Moredun Scientific and […]
Oocyst per gram from calf fecal samples was determined by microscopy (performed at MRI) and by qPCR (Pawlowic Lab at the University of Dundee). For microscopy 0.1 g of fecal material was resuspended in 10 ml PBS. 100 microliters of diluted fecal material was incubated with 15 microliters Cryptosporidium FITC Stain (CellLabs) and incubated at 37 °C for 15 minutes. Samples were then mounted on a grided slide and counted using a fluorescent microscope. For qPCR, fecal samples were continuously stored in 4°C and transported to the University of Dundee. DNA was extracted from 100mg of fecal material (unless otherwise noted) using the Zymo Quick-DNA Fecal/Soil Microbe Miniprep Kit (Cambridge Bioscience, catalog #D6010). Once material was suspended in Bashing Bead Buffer we modified the protocol slightly by adding 5 freeze/thaw cycles.(32) DNA was stored in 4°C to await qPCR.
For the standard curve, known amounts of wild-type oocysts were added to 100 mg of uninfected murine fecal sample and DNA was extracted using the protocol detailed above. We […]

Data set [4] can be described thus: Hepatocyte intrinsic clearance, human. Conditions: human hepatocytes. In kind it is in vitro ADME.
Data set [5] is described as follows: PAMPA permeability. In kind it is in vitro ADME. Conditions: for Papp at 5 h, 10 µM: PAMPA, pH 7.4, pH 7.4. Here is the method:
Solubility test samples were prepared by adding 5 μL stock to PBS pH 7.4 (195 μL). […] […] vacuum […] (Millipore Multiscreen HTS fi lter, 96-well format) to remove any undissolved material. The […] analyzed for dissolved drug compound using a truncated UHPLC methodology. A calibration solution was prepared for each test compound. […] Aliquots of the test sample […] (0.4 and 5.0 μL) were injected onto the UHPLC system and the resultant test compound peak areas quantifi ed […] PAMPA per meability As previously described.(28) The permeability assay was performed using a 96-well precoated BD Gentest PAMPA plate (BD Biosciences). Each well was divided into two chambers: donor and acceptor, separated by a lipid-oil-lipid trilayer constructed in a porous fi lter. […] Stock solutions (5 mM) of the compound were prepared in DMSO. […] The compound dissolved in phosphate buffered saline was added to the donor side of the membrane, and phosphate-buffered saline without the compound was added to the acceptor side. The PAMPA plate was left at room temperature for 5 h then an aliquot (100 μL) was removed from both acceptor and donor compartments and mixed with acetonitrile (80 μL) containing an internal standard: donepezil at 50 ng/mL. The samples were centrifuged (10 min, 5 °C, 3270×g) to sediment lipids and sealed prior to UPLC-MS/MS analysis using a Quattro Premier XE (Waters Corp, USA). Recovery of the compound from donor and acceptor wells was calculated, and data were only accepted when recovery exceeded 70%.
For orientation: The PAMPA barrier holds no transporters, so it reflects passive diffusion.

The mark [6] stands for this setting: Cryptosporidium parvum, HCT-8, 48 h, read-out: C. parvum EC50, co-cultured with HCT-8 cells for 48 hrs.
[7] abbreviates: read-out: C. parvum EC50, co-cultured with HCT-8 cells for 48 hrs.

The EC50 is the concentration that produces a half-maximal response. As usually defined, the EC90 is the point of the concentration-response curve where the effect stands at 90%. For orientation: Papp means the rate of passage across a membrane or cell layer, normalised by area and donor concentration. Lower therefore signals slow passage. With `Nc1nc2c(c(C(F)(F)F)n1)C(=O)N(CC1CCCC(C(F)(F)F)C1)C2` (stereo not shown) [DDD489], the figures for the EC50 in data set [1] (setting [6]), in data set [1] (setting [7]) and in data set [2] were 43 nM, 40 nM and 40 nM, respectively. Further, in data set [1] (Cryptosporidium parvum), the EC90 is 100 nM. Besides, the “calves receiving treatment that shed Cryptosporidium after day 16 PI” value in data set [3] is listed as 3/7. The Cryptosporidium shedding entry in data set [3] was “did not shed any detectable amount of Cryptosporidium”. Further, in data set [3], the fecal scores result is “normal to mild range”. Further, in data set [4], the “Heps CLi (h)” value worked out at 1.1 mL/min/g. Moreover, the apparent permeability (Papp) at 5 h, 10 µM in data set [5] came to 17.1 ×10⁻⁶ cm/s.

Turning to `O=C(NCC1(O)CCCCC1)c1cc(=O)c2cc(O)ccc2o1` [DDD508], in data set [1] (setting [6]), the EC50 was 132 nM. In data set [1] (Cryptosporidium parvum), the EC90 is 380 nM. Further, the EC50 in data set [1] (setting [7]) amounted to 130 nM. Moreover, the EC50 in data set [2] came out at 100 nM. Further, in data set [3], the “calves receiving treatment that shed Cryptosporidium after day 16 PI” value is 4/7, the Cryptosporidium shedding entry is “did not shed any detectable amount of Cryptosporidium” and the fecal scores entry was “normal to mild range”. Besides, the “Heps CLi (h)” value in data set [4] is listed as < 0.5 mL/min/g. In addition, the Papp at 5 h, 10 µM in data set [5] is 0.69 ×10⁻⁶ cm/s. Also, in data set [5] (pH 7.4), the “PAMPA Papp” value came to 0.7 ×10⁻⁶ cm/s.
